Results from US4474961A, “1,10[8,9-Benz]phenanthroline” (Development Finance Corporation of New Zealand, priority 1982, dated 1984).

How the values were obtained:
tumour = details: earlier work, literature; cited from earlier work
P388 leukaemia = assay: P388 in vivo, life span of mice bearing intraperitoneal P388 leukaemia; parameters: species or system mice (F1 hybrid, DBA-2 male×C57 B1 female); details: for ILS (percentage increase in life span): at optimal dose, days 1, 5 and 9, controls survive 11 days on average, >20% statistically significant; for OD (O.D., optimal drug dose): solution in 0.1 ml of 30% v/v ethyl alcohol in water on days 1, 5 and 9, soluble acid addition salt
Description: These have been shown by studies at the National Cancer Institute, U.S.A. to be useful for detecting agents with antitumor activity against clinical cancer (A. Goldin, J. M. Venditti, J. S. MacDonald, F. M. Mugia, J. E. Henney and V. T. De Vita, Europ.J. Cancer 17, 129-142, (1981). The abbreviations given in Table II are:
P388 in vivo--Tumour P388 cells were obtained as frozen stocks from Mason Research Inc., U.S.A. and passaged intraperitoneally according to standard methods (Cancer Chemother. Rep. 3, Part 3, page 9, 1972) in DBA-2 mice of either sex. Groups of six F1 hybrid mice (DBA-2 male×C57 B1 female, g weight 20±1 g) were injected intraperitoneally with 10^6 cells on day 0.
O.D.--optimal drug dose, in milligrams per kilogram, administered as a solution in 0.1 ml of 30% v/v ethyl alcohol in water on days 1, 5 and 9 after tumour inoculation. The drug is administered as a soluble acid addition salt.
ILS--percentage increase in life span of treated animals over that of groups of control animals injected with tumour alone. The average survival of control mice was 11 days. Values of ILS greater than 20% are considered statistically significant.

[1] = system: murine L1210 leukaemia cells; assay: L1210 in vitro, growth of cultured murine leukaemia cells; format: cell-based; details: Mus musculus, concentration that reduces counted number of leukaemia cells by 50% over 70 hours, read-out: ID50 (the source's name)
Description: L1210 in vitro--The culture methods used are described in detail elsewhere (B. C. Baguley and R. Nash, Europ.J.Cancer, 17, 671-679 (1981). Acceptable reproducibility of data depends critically upon the maintenance of optimal culture conditions. L1210 cells were initially obtained from Dr. I. Wodinsky, Arthur D. Little Inc., Boston, U.S.A., under the auspices of the National Cancer Institute.
ID50 --the nanomolar concentration of drug which when added to cultures of murine L1210 leukaemia cells over a period of 70 hours, reduces the resultant counted number of leukaemia cells by 50% (B. C. Baguley and R. Nash, Europ.J.Cancer 17, 671-679 (1981).

| Structure (SMILES) | antitumour effect (tumour) | Active (P388 leukaemia) | ILS (percentage increase in life span) (P388 leukaemia) [%] | OD (O.D., optimal drug dose) (P388 leukaemia) [milligrams per kilogram] | IC50 [1] [nM] |
| --- | --- | --- | --- | --- | --- |
| CS(=O)(=O)Nc1ccc(Nc2c3ccccc3nc3ccccc23)cc1 [AMSA, 4'-(9-acridinylamino) methanesulphonanilide] | marked antitumour effect |  |  |  |  |
| COc1cc(NS(C)(=O)=O)ccc1Nc1c2ccccc2nc2c1ccc1cccnc12 [Compound 1] |  | Yes | 109 | 13.3 | 26 |
| CS(=O)(=O)Nc1ccc(Nc2c3ccccc3nc3c2ccc2cccnc23)cc1 [Compound 2] |  | Yes | 30 | 150 | 58 |
| COC(=O)Nc1ccc(Nc2c3ccccc3nc3c2ccc2cccnc23)c(OC)c1 [Compound 3] |  | Yes | 95 | 45 | 46 |
| COC(=O)Nc1ccc(Nc2c3ccccc3nc3c2ccc2cccnc23)cc1 [Compound 4] |  | Yes | 64 | 30 | 18 |
| COP(=O)(Nc1ccc(Nc2c3ccccc3nc3c2ccc2cccnc23)cc1)OC [Compound 5] |  | Yes | 64 | 45 | 31 |
